From patent EP0357134B1, “Antihypertensive 3-piperidinyl-indazole derivatives” (priority 1988, dated 1990) come the findings set out here.

Molecules are shown by their SMILES.

Holding throughout (format): in vivo
The test system of assay [1] is adult male Wistar rats. Description: Combined test in rats: norepinephrine (NOR) test. Conditions: Rattus norvegicus; protection from norepinephrine-induced mortality; compound subcutaneously or orally; 1.25 mg/kg norepinephrine i.v. at 120 minutes, observed up to 60 minutes; read-out: Combined test in rats; ED₅₀ in mg/kg (NOR). As for the experimental part: (§1) The experimental animals used in this test were adult male Wistar rats (weight 240 ± 10g). After an overnight fast, the animals were treated subcutaneously or orally with an aqueous solution of the compound under investigation (1ml/100g body weight) (time = zero) and put in isolated observation cages. […] At the end of this 1 hour period (time = 90 minutes) the same animals were injected intravenously with 40 mg/kg of tryptamine (TRY) and the presence of the typical tryptamine-induced bilateral tonic seizures and hyperaemia of the ears was noted. Two hours after pretreatment (time = 120 minutes) finally, the same animals were challenged with 1.25 mg/kg intravenously of norephinephrine (NOR) and possible mortality was looked for up to 60 minutes later.
(§2) The table 4 gives the ED₅₀-values of a number of the compounds under consideration. As used herein, the ED₅₀-value represents the dose which protects 50% of the animals from apomorphine-, tryptamine- or norepinephrine-induced phenomena.

Assay [2] concerns adult male Wistar rats. Put plainly: Combined test in rats: tryptamine (TRY) test. Conditions: Rattus norvegicus, 1.5 h, compound subcutaneously or orally, 40 mg/kg tryptamine i.v. at 90 minutes, read-out: Combined test in rats. As for the experimental part:
as §1, §2

The test system of assay [3] is adult male Wistar rats. Description: Combined test in rats: apomorphine (APO) test. Conditions: Rattus norvegicus, 0.5 h, read-out: Combined test in rats, ED₅₀ in mg/kg (APO). The protocol:
as §1, §2

The subject of assay [4] is beagle dogs. Description: The apomorphine test in dogs (APO-dog). Conditions: Canis lupus familiaris, 1 h; dose protecting 50% of animals from emesis; compound subcutaneously or orally; 0.31 mg/kg (s.c.) apomorphine one hour thereafter; read-out: (APO)-dog test, ED₅₀ in mg/kg. As for the experimental part: The method used is described by P.A.J. Janssen and C.J.E. Niemegeers in Arzneim.-Forsch. (Drug Res.), 9,765-767 (1959). The compounds listed in table 4 were administered subcutaneously or orally to beagle dogs at different doses and the animals were challenged one hour thereafter with a standard dose of 0.31 mg/kg (s.c.) of apomorphine.
The table 4 gives the ED₅₀-values of a number of the compounds under consideration. As used herein, the ED₅₀ value represents the dose which protects 50% of the animals from emesis.

Where [5] appears, read: protection from tryptamine-induced bilateral tonic seizures, ED₅₀ in mg/kg (TRY)-convulsions.
Where [6] appears, read: protection from tryptamine-induced hyperaemia of the ears, ED₅₀ in mg/kg (TRY)-hyperaemia.
Where [7] appears, read: dose protecting 50% of animals from apomorphine-induced agitation and stereotypic chewing, compound subcutaneously or orally, 1.25 mg/kg apomorphine hydrochloride i.v. at 30 minutes.

With `Cc1nc2sccn2c(=O)c1CCN1CCC(c2nn(-c3ccc(F)cc3)c3cc(F)ccc23)CC1` [Compound 16], the ED50 is above 10 mg/kg in assay [1], 5 mg/kg in assay [2] (setting [5]), 0.08 mg/kg in assay [2] (setting [6]) and above 10 mg/kg in assay [3].
Take `COc1ccc2c(C3CCN(CCc4c(C)nc5sccn5c4=O)CC3)n[nH]c2c1` [Compound 34]: the ED50 in assay [4] was above 0.01 mg/kg; in assay [1] it was 1.25 mg/kg; in assay [2] (setting [5]), above 10 mg/kg; in assay [2] (setting [6]) it was 1.25 mg/kg; in assay [3] (setting [7]) it was above 10 mg/kg.
As to `Cc1nc2n(c(=O)c1CCN1CCC(c3n[nH]c4cc(F)ccc34)CC1)CCS2` [Compound 2, 6-[2-[4-(6-fluoro-1H-indazol-3-yl)-1-piperidinyl]ethyl]-2,3-dihydro-7-methyl-5H-thiazolo[3,2-a]pyrimidin-5-one], the ED50 amounted to 0.002 mg/kg in assay [4]; 0.31 mg/kg in assay [1]; 5 mg/kg in assay [2] (setting [5]); 0.005 mg/kg in assay [2] (setting [6]); 5 mg/kg in assay [3].
On to `Cc1nc2scc(C)n2c(=O)c1CCN1CCC(c2nn(-c3ccc(F)cc3)c3cc(F)ccc23)CC1` [Compound 20], for which the ED50 was above 10 mg/kg in assay [1], at least 10 mg/kg in assay [2] (setting [5]), 0.08 mg/kg in assay [2] (setting [6]) and above 10 mg/kg in assay [3].
Turning to `Cc1nc2ccccn2c(=O)c1CCN1CCC(c2nn(C)c3cc(F)ccc23)CC1` [Compound 11], the ED50 in assay [4] was 0.12 mg/kg; in assay [1], 0.08 mg/kg; in assay [2] (setting [5]), 0.31 mg/kg; in assay [2] (setting [6]), 0.005 mg/kg; in assay [3] it was 5 mg/kg.
Regarding `Cc1nc2c(C)cccn2c(=O)c1CCN1CCC(c2nn(Cc3ccccc3)c3cc(F)ccc23)CC1` [Compound 29], the ED50 was 0.004 mg/kg in assay [4]; 1.25 mg/kg in assay [1]; 5 mg/kg in assay [2] (setting [5]); at most 0.16 mg/kg in assay [2] (setting [6]); 1.25 mg/kg in assay [3] (setting [7]).
Regarding `COc1ccc(Cn2nc(C3CCN(CCc4c(C)nc5n(c4=O)CCS5)CC3)c3ccc(F)cc32)cc1` [Compound 30, 6-[2-[4-[6-fluoro-1-[(4-methoxyphenyl)methyl]-1H-indazol-3-yl]-1-piperidinyl]ethyl]-2,3-dihydro-7-methyl-5H-thiazolo[3,2-a]pyrimidin-5-one], the ED50 in assay [4] was above 0.63 mg/kg; in assay [1], 5 mg/kg; in assay [2] (setting [5]) it was 10 mg/kg; in assay [2] (setting [6]) it was 0.08 mg/kg; in assay [3] it was above 10 mg/kg.
Taken in the same sequence, the figures for `Cc1nc2sccn2c(=O)c1CCN1CCC(c2n[nH]c3cc(F)ccc23)CC1` [Compound 17] were 0.004 mg/kg, 2 mg/kg, 5 mg/kg, 0.03 mg/kg and 5 mg/kg.
Taken in the same sequence, the figures for `Cc1nc2n(c(=O)c1CCN1CCC(c3n[nH]c4cc(F)ccc34)CC1)CCCC2` [Compound 13] were 0.015 mg/kg, 0.31 mg/kg, 1.25 mg/kg, 0.02 mg/kg and above 10 mg/kg.
Taken in the same sequence, the figures for `Cc1nc2scc(C)n2c(=O)c1CCN1CCC(c2nn(C)c3cc(F)ccc23)CC1` [Compound 21] were 0.12 mg/kg, 0.31 mg/kg, 0.08 mg/kg, 0.005 mg/kg and 1.25 mg/kg.
Turning to `Cc1nc2ccccn2c(=O)c1CCN1CCC(c2nn(-c3ccc(F)cc3)c3cc(F)ccc23)CC1` [Compound 9], the ED50 in assay [1] was 5 mg/kg; in assay [2] (setting [5]) it was 5 mg/kg; in assay [2] (setting [6]) it was 0.08 mg/kg; in assay [3], above 10 mg/kg.
`Cc1nc2sccn2c(=O)c1CCN1CCC(c2nn(C)c3cc(F)ccc23)CC1` [Compound 18]: the ED50 in assay [4] came to 0.2 mg/kg; in assay [1] it was 1.25 mg/kg; in assay [2] (setting [5]), 1.25 mg/kg; in assay [2] (setting [6]), 0.005 mg/kg; in assay [3] (setting [7]), 5 mg/kg.
As to `Cc1nc2n(c(=O)c1CCN1CCC(c3nn(C)c4cc(F)ccc34)CC1)CCS2` [Compound 25], the ED50 in assay [4] is below 0.015 mg/kg; in assay [1] it was 0.31 mg/kg; in assay [2] (setting [5]), 1.25 mg/kg; in assay [2] (setting [6]), 0.01 mg/kg; in assay [3] it was above 10 mg/kg.
